Measured values: patent US9944967B2, “Methods for the site-selective introduction of halogen into natural products” (THE REGENTS OF THE UNIVERSITY OF CALIFORNIA, priority 2013, dated 2018)

Tests used:
[1] = biological target: T1, DEBSMod6+TE (Saccharopolyspora erythraea, UniProt Q03133); test: Acyl-CoA hydrolysis by DEBSMod6+TE (DTNB assay); type: biochemical
T1 construct: the sixth module of DEBS, including the terminal thioesterase (DEBSMod6+TE); His6 (C); made in house; host or cells: E. coli BAP1
T1 sequence (Q03133 1492-3172): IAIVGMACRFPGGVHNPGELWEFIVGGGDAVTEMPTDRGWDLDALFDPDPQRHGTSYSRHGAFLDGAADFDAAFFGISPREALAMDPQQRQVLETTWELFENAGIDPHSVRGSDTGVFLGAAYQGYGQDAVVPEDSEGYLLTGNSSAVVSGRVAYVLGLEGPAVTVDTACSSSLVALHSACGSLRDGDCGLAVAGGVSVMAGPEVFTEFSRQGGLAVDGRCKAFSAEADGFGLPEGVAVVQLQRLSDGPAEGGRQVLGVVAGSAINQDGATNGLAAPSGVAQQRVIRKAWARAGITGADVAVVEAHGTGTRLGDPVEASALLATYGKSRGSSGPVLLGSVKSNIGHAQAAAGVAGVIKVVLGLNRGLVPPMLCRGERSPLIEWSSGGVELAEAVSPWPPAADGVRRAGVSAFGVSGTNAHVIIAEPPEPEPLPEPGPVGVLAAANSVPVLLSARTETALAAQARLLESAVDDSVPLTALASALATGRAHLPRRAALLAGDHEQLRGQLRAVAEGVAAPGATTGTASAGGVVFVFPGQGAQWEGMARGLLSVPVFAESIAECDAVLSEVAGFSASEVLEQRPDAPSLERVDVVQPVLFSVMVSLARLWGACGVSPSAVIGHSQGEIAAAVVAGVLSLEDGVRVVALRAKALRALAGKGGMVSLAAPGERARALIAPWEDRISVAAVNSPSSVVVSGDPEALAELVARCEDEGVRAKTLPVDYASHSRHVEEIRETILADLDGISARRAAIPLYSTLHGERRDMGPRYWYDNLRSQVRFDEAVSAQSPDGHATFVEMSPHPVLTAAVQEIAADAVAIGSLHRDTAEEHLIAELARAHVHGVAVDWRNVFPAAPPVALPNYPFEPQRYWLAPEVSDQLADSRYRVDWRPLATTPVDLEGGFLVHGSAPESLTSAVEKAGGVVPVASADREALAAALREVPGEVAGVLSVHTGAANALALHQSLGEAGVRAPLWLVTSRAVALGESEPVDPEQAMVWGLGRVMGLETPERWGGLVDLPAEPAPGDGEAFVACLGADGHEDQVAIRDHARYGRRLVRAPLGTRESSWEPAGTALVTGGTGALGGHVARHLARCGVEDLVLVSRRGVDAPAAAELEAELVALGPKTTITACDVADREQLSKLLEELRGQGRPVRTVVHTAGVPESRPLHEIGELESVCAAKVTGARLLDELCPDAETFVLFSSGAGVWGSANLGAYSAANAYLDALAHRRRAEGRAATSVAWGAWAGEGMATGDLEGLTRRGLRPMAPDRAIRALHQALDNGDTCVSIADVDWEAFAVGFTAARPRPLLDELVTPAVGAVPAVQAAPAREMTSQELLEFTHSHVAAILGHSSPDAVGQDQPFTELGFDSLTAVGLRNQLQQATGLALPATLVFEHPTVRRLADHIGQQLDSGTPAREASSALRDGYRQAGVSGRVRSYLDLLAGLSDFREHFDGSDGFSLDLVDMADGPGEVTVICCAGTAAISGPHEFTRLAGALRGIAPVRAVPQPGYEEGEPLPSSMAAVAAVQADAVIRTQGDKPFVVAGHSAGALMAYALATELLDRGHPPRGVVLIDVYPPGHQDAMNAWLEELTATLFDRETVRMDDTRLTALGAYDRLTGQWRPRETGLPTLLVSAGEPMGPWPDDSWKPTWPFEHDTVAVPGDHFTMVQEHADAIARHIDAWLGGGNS
Description: Hydrolytic activity of DEBSMod6+TE was measured by monitoring the reaction of free CoA with DTNB as described previously (Huang, F., et al., Chem. Biol., 13:475-484 (2006)). Assays were performed at 37° C. in a total volume of 200 μL containing 400 mM sodium phosphate, pH 7.5, 500 μM DTNB, and DEBSMod6+TE (1 μM). Reactions were initiated by addition of acyl-CoA (0.5 mM) and monitored at 412 nm in a Beckman Coulter DU-800 spectrophotometer. Release of CoA was quantified by comparison to a standard curve (5-100 μM).

[2] = Stability of fluoromalonyl-CoA solutions; type: physicochemical; conditions: room temperature; in water or D2O
Description: Fluoromalonyl-CoA was prepared enzymatically from fluoromalonate and CoA using MatB and ATP. A myokinase/pyruvate kinase/PEP system was also used to regenerate ATP in order to avoid high concentrations of AMP that might inhibit MatB. The reaction mixture (10 mL) contained 100 mM sodium phosphate, pH 7.5, phosphoenolpyruvate (5 mM), TCEP (2.5 mM), magnesium chloride (5 mM), fluoromalonate (2.5 mM), ATP (2.5 mM), pyruvate kinase (36 U), myokinase (20 U), CoA (2 mM) and MatB (5 μM). The mixture was incubated at 37° C. for 6 h and then at room temperature for 16 h before lyophilizing overnight. The residue was dissolved in water (1.6 mL) and acidified to pH ˜2 by addition of 70% perchloric acid (160 μL). Insoluble material was removed by centrifugation at 18,000×g for 10 min. […] HR-ESI-MS [M−H]^−: calculated for C24H36FN2O19P3S, m/z, 870.0989. found m/z 870.0991.

[3] = test system: DEBSMod6+TE; test: Covalent inhibition assay for DEBSMod6+TE; type: biochemical; conditions: 18 h incubation in F-TKL reaction, then tested for TKL production; preliminary
Description: Two triketide reaction mixtures (200 μL) were prepared as described above, one containing fluoromalonate (10 mM) and the other methylmalonate (10 mM). DEBSMod6+TE (10 μM) and NDK-SNAC (2.5 mM) were added to each and the reactions were incubated at 37° C. for 18 h. The protein fraction was isolated from each mixture at room temperature by desalting on a Sephadex G-25 column (3 mL) using 400 mM sodium phosphate, pH 7.5. Fractions were pooled by Bradford assay and concentrated to 200 μL using Amicon Ultra spin concentrators (3 kDa MWCO). The isolated DEBSMod6+TE was assayed by adding TCEP (2.5 mM), methylmalonyl-CoA (1 mM) and NDK-SNAC (1 mM) to this mixture to give a final volume of 210 μL and incubating at 37° C. for 3 h, then analyzed by HPLC as described above.

[4] = test system: malonyl-CoA synthetase (MatB); test: Malonyl-CoA synthetase (MatB) coupled assay; type: biochemical, S. coelicolor
Description: MatB activity was measured using a modified literature method (Williamson, J. R., et al., Method. Enzymol., 434-513 (1969)). The production of AMP was coupled to pyruvate formation by myokinase and pyruvate kinase, which in turn was coupled to NADH oxidation by lactate dehydrogenase. Assays were performed at 30° C. in a total volume of 200 μL containing 100 mM HEPES, pH 7.5, TCEP (1 mM), ATP (2.5 mM), magnesium chloride (5 mM), phosphoenolpyruvate (1 mM), NADH (0.3 mM), myokinase (0.5 U), pyruvate kinase (3.6 U), lactate dehydrogenase (2.6 U), dicarboxylic acid (25 μM-1 mM malonate, 50 μM-10 mM fluoromalonate or 25 μM-1.5 mM methylmalonate) and MatB (26 nM for malonate, 1 μM for fluoromalonate and 200 nM for methylmalonate). The reaction was initiated with addition of CoA (0.5 mM) and monitored at 340 nm in a Beckman Coulter DU-800 spectrophotometer.

| Compound | v0 (rate of acyl-CoA hydrolysis) ([1]; DEBSMod6 + TE (1 μM), acyl-CoA (500 μM), mean ± s.d. (n = 4)) [µM/min] | Relative rate of acyl-CoA hydrolysis ([1]; relative to methylmalonyl-CoA) | stability of solutions [2] | covalent inactivation of DEBSMod6+TE [3] | selectivity of MatB for malonate over fluoromalonate [4] [fold] |
| --- | --- | --- | --- | --- | --- |
| CC(C)(COP(=O)(O)OP(=O)(O)OC[C@H]1O[C@@H](n2cnc3c(N)ncnc32)[C@H](O)[C@@H]1OP(=O)(O)O)[C@@H](O)C(=O)NCCC(=O)NCCSC(=O)C(F)C(=O)O (some centres unmarked) [Fluoromalonyl-CoA] | 3.5 ± 0.3 | 2.6 | at least 24 h | not due to covalent inactivation of the enzyme |  |
| Fluoromalonate |  |  |  |  | 103 |
